From patent US5211657A, “Laminin a chain deduced amino acid sequence, expression vectors and active synthetic peptides” (The United States Government as represented by the …, priority 1988, dated 1993)

Assays:
[1] = tested on: cells in culture and tumor cells in vivo; assay: Various biological activities with cells in culture and tumor cells in vivo (comparison of derivatives); conditions: all presently found activities
[2] = tested on: HT-1080 fibrosarcoma cells; assay: Collagenase production (collagen IV degrading enzymes in conditioned medium); format: cell-based; conditions: HT-1080 cells treated for 6 hours
Description: This enzyme is thought to be important in cancer where its production is correlated with the invasive and metastatic activity of malignant tumor cells. In fact, degradation of basement membranes by collagenase IV is a necessary step in the metastatic process. […] The cells were treated for 6 hours with various amounts of the peptide and then the conditional medium was assayed for the production of collagen IV degrading enzymes. The effect is dose-dependent and is not reproduced by any other peptide tested to date. The importance of localizing this activity to peptide PA22-2 is that it will now be possible to more precisely define the molecular events involved in the metastatic process. Competitive inhibitors of this activity can be readily designed by modification of the composition of the active peptide i.e. Dasmano acids, cyclic forms etc. There may also be situations where the production of the enzyme could be advantageous such as in speeding the migration of leukocytes to sites of infection.

B16-F10 and PC12 cells = assay: Cell growth; format: cell-based
cell migration = assay: Cell migration; format: cell-based
[3] = tested on: Human umbilical vein endothelial cells; assay: Endothelial cell tube formation on reconstituted basement membrane; format: cell-based
Description: Human umbilical vein endothelial cells when coated on a reconstituted basement membrane substrate rapidly (by 12 hours) organize into capillary-like structures (see FIG. 18A). […] It may have a potential clinical use in blocking blood vessel formation as for example, during the vascularization of tumors and in diabetic retinopathy (ex diabetic retinopathy or Kaposi sarcoma). […] 18A: Morphology of cells. Cells were plated on a reconstituted basement membrane substrate and after 2 and 18 hours it is apparent that the cells line up into capillary-like structures. […] 18B: Adhesion to peptides. 18C: peptide inhibition of tube formation.

B16F10 (melanoma) = assay: Cell attachment and spreading on coated dish (Table IV); format: cell-based
Description: (§1) A further aspect of the invention provides synthetic peptides from the deduced amino acid sequence of the cDNA sequence for the A chain. These synthetic peptides can be synthesized by any suitable method such as one previously used by our group (Graf et al (1987) Cell 48:989). A variety of synthetic peptides are tested for biological activity such as promoting cell adhesion, migration, growth and preventing invasion of tumor cells (see locations and sequences of the active peptides in FIG. 14 and Table III). […] A: increasing amounts of peptide were coated onto a 24 well dish in DMEM for 2 hours. The unbound peptide was removed and the wells were incubated with DMEM containing 3% BSA before the addition of cells. B and C: Morphological appearance of cells attached on peptide and laminin substrates. In the absence of peptides or laminin, few cells were attached. Table III is shown below.
(§2) This peptide is active with various cells and its activity can be equal to that of laminin itself in terms of the total number of cells that can attach to surfaces coated with the peptide. […] Table IV is shown below.

HT1080 (fibrosarcoma) = assay: as above; format: cell-based; conditions: HT-1080
Description: as §1, §2

B16F10 Melonoma Cells = assay: Lung tumor formation after tail vein injection of B16F10 melanoma cells with peptide; format: in vivo, mice; conditions: for Number of Tumors/animal: lung surface tumors after 3 weeks, no peptide: 26
Description: It is well known that tumor cells must attach degrade, and migrate through basement membranes in order to spread to distant sites. Laminin is known to increase the metastic phenotype of tumor cells and the number of tumors formed in mice. Using a line of B16 melanoma cells which specifically colonize the lung when injected into mouse tail vein, we have studied the effect of peptide PA22-2 on the formation of lung tumors.
In these studies, various amounts of peptide PA22-2 are mixed with the B16F10 melanoma cells (5×10^4) and injected into mice via the tail vein. Eight mice are injected for each concentration of test peptide. After 2-3 weeks, the mice are sacrificed and the number of […] colonies on the lung surface are counted.
10^5 melanoma cells in a final volume of 0.2 ml of Dulbecco's
modification of Eagle's medium (DMEM) containing the indicated amount and
type of peptide were injected in the tail vein. Eight mice were in each
test group. After 3 weeks, the mice were sacrificed, lungs were removed.
The number of tumors on the surface of the lungs was determined by using
Each group contained 8 mice which were injected with […] B16F10 Melanoma cells via the tail vein in a final volume of 0.2 DMEM containing the designated amount of peptide. After three weeks, the animals were sacrificed and the number of colonies on the surface of the lungs was determined.

various cells = assay: Cell attachment to peptide coated on plastic; format: cell-based
Description: as §1, §2

[4] = tested on: neural cell lines (PC-12, NG108-15) and primary cultures of neural cells; assay: Neurite outgrowth / process formation on coated peptide; format: cell-based; conditions: peptide coated on plastic dish
Description: In fact, laminin promotes regeneration faster and over greater distances than any other factor described to date. […] It is active in a dose-dependent manner and is active both with neural cell lines (PC-12 FIGS. 17A and B and NG108-15) and with primary cultures of neural cells both from the peripheral and the central nervous system. The processes formed appear identical to those observed with intact laminin (see FIG. 17A).
The assay was carried out in a similar manner to the cell adhesion assay. 17A: Morphology after 4 hours. 17B: Dose response curve showing number of processes formed. Cells were directly counted from at least 10 microscopic fields.

[5] = tested on: laminin-mediated cell adhesion; assay: Blocking of laminin-mediated cell attachment by soluble peptide; format: cell-based; conditions: laminin coated dish; peptide added with cells; one and a half hours
Description: Laminin was coated on the dish as described above, then peptide togehter with cells were added to the dishes and cell adhesion after one and a half hours was determined.

[6] = tested on: endothelial cell binding to laminin; assay: Competition with intact laminin for endothelial cell binding; format: cell-based; conditions: endothelial cells
Description: Many of the same cells which recognize peptide PA22-2 and YIGSR also recognize and bind to PA21 and PA26 but the degree of binding is quite different. […] Since the sequence of PA36 is unique to laminin, the response of endothelial cells to PA36 is likely to be specific to the peptide.

HUVEC (endothelia cell) = assay: Cell attachment and spreading on coated dish (Table IV); format: cell-based, Human; conditions: endothelial cells
Description: as §1, §2

[7] = tested on: neural cell lines (PC-12, NG108-15) and primary cultures of neural cells; conditions: background statement; cited from earlier work
[8] = tested on: HT-1080 fibrosarcoma cells; conditions: background statement; cited from earlier work
EGF-like activity = conditions: personal communication; cited from earlier work

For XRKQAASIKVAVS [PA22-3], the “Activity relative to PA22-2” value [1] was “almost equally active”.

In the case of XSRARQAASIKVAVSADR [PA22-2], the Production of collagenase [2] is reported as “increase in the production of collagenase to levels comparable to those observed with intact laminin”, the Cell growth (B16-F10 and PC12 cells) is reported as “stimulate growth” and the Cell migration (cell migration) is reported as “active”. The “Adhesion of HUVEC” value [3] was “does not alter the adhesion of these cells”, the “Formation of capillary-like structures (tube formation)” value ([3]; HUVEC on reconstituted basement membrane) was “block the formation of capillary-like structures” and the “Spreading on substrates coated with the peptide” value (B16F10 (melanoma)) was “spreading is observed”. The “Spreading on substrates coated with the peptide” value (HT1080 (fibrosarcoma)) was “spreading is not observed”, the “Number of Tumors/animal” value (B16F10 Melonoma Cells; 0.5 mg peptide injected with melanoma cells in tail vein) was 44 and the “Number of Tumors/animal” value (B16F10 Melonoma Cells; 1 mg peptide injected with melanoma cells in tail vein) was 53. The “Increase in the number of lung tumors” value (B16F10 Melonoma Cells; 1 mg/mouse) was “two-fold increase”, the Heparin binding (Heparin binding) was “promote activity to bind heparin” and the “Cell adhesion / attachment to coated peptide” value (shortened to “Cell adhesion / attachment”) (various cells) was “promotes the adhesion of various epithelial cells in a rapid dose-dependent manner”. The “Neurite outgrowth promoting activity” value [4] was “mimics the neurite promoting activity of laminin” and the “Blocking of laminin-mediated cell adhesion” value [5] was “can complete (i.e. block) laminin-mediated cell adhesion”.

With CSKCQAGTFALR [PA36] the “Competition with intact laminin for endothelial cell binding to laminin” value [6] was “effectively competes with intact laminin for endothelial cell binding to laminin” and the “Endothelial cell adhesion to peptide” value (HUVEC (endothelia cell)) was “specifically active with endothelial cells for cell adhesion”.

With XGQIKKSPAVKVT [pA31-2] the “Cell adhesion / attachment” value (various cells) was “has some cell attachment activity”.

For XIKVAVSADR [PA22-4], the “Activity relative to PA22-2” value [1] was “almost equally active”.

For “Laminin: large glycoprotein localized to basement membranes, composed of three chains A, B1 and B2; prepared from EHS tumor”, the “Neurite outgrowth promoting activity (background)” value [7] is listed as “very active in promoting neurite outgrowth”, the “Collagenase production / release (background)” value [8] is listed as “induces the production of collagenase IV” and the EGF-like activity (EGF-like activity) is listed as “exert EGF-like growth factor activity”.

With XFALRGDNPQG [PA26] the “Cell adhesion / attachment” value (various cells) was “support the attachment of many cells”.

With XGQIKKSPAVKVTHFKG [pA31-1] the “Cell adhesion / attachment” value (various cells) was “active for cell attachment”.
